These results are taken from patent EP0574185B1, “PGE1 analogs” (NEWPHARMA INTERNATIONAL CORPORATION, priority 1992, dated 1993).

One data set relates to Swiss mice. Kind of data set: Exploratory activity in mice (open field). The class given is in vivo. The settings on record: i.p., control 88 ± 8, n=10. The method, then: The effect of B-407 on the exploratory activity was evaluated in Swiss mice of 30 g to 40 g in an open-field of 40 cm x 40 cm x 25 cm divided in 9 quadrants. One mouse at a time was placed into the open field to assess its exploratory activity by counting the number of quadrants crossed in 4 consecutive periods of 3 minutes each.
The working protocol consisted of two experiments with 3 groups of 10 animals each. In both experiments, each group of mice were pretreated with B-407, 0 µg/kg, 30 µg/kg and 100 µg/kg five min prior to the test. In one experiment, the animals were treated, p.o., with a combination of the antispasmodics homatropine methylbromide (5 mg/kg) and papaverine (5 mg/kg) administered 10 min prior to B-407. In the other experiment, this treatment was replaced by saline solution. The two experiments were carried out at the same time.
The results were expressed as the average ± standard error of each group and the statistical significance of the differences were evaluated by means of the Student's-t-test.

The next data set has as its system guinea pigs. Nature of the data set: Histamine-aerosol induced bronchoconstriction in guinea pig. The class given is in vivo. The settings on record: 150 µg/kg, i.p., 5 minutes before histamine challenge; n= 8; initial 115 ± 6, final 127 ± 4. The method, then:
The protective effect of B-407 on the bronchoconstriction induced by histamine aerosol in male guinea pigs weighing 700 g was evaluated. One guinea pig at a time was placed into a 15 l hermetically closed container. Then 200 µl of histamine solution (600 µg of histamine base) was sprayed with compressed air at a pressure of 1 PSI. The time at which the hypoxic symptoms (increase of breathing frequency, bronchospasm, dysnea, apnea and finally the collapse of the animal (falling down) was determined.
The working protocol comprised 3 parts: • 1) The determination of the falling down time of the guinea pigs exposed to the histamine aerosol was determined.
The results were expressed as the time in seconds elapsed before the animals fell down ["Antihistamine Agents" (Cap. 22) in: "Screening Methods in Pharmacology". Academic Press, New York (1965). Brit. J. Pharmacology. 16, 59 (1961); Arch. Intern. Pharmacodyn. 129, 77 (1960); J. Pharmacol. Exptl. Therap. 131, 73 (1961); Arch. Intern. Pharmacodyn. 115, 332 (1958); "Les Antihistaminiques de Synthése", Chapter 22, page 784 in : "Structure et activité pharmacodynamique de medicaments du systéme nerveux vegetatif". S. Karger Bale (Suisse)- New York: (1948)].

The subject of data set [1] is rat uterus under estrous condition. Nature of the data set: C1: effect on PGF2α induced in vitro contraction of rat uterus under estrous condition. The settings on record: PGF2α 10^-8 M, nutrient solution 0,84. The method, then:
The experimental conditions were identical to those described in part A for the concentration-response curves without spontaneous contractions.
The uterus was allowed to equilibrate in a 10^-8 M PGF2α solution for 2 minutes, then the uterus was washed again during 15 minutes. This whole treatment was repeated twice.
Then, a known concentration of the test prostaglandin was added and no washing was carried out during the following 15 minutes. PGF2α (10^-8 M) was added, washing once after 2 minutes and then twice over a total time period of 15 minutes. The result was expressed as the relationship between the effect of PGF2α after the treatment with B-407 and the sum of the effect of PGF2α (mean of the three initial additions) and the effect of B-407 "per se". The recordings of the contractions and their quantitation were performed as described in (A).
* p < 0.05: Tested vs. nutrient solution by ANOVA and Scheffe. ** p < 0.02: Tested vs. nutrient solution by Student's-t-test. Ratio = Effect of PGF2α after B-407/(Effect of PG F2α before B-407 + Effect of B-407). S.E. = Standard Error
The frequency and magnitude of the responses were globally evaluated by calculating the total area recorded at a fixed time period as will be further explained. The areas under the curve of the recording paper, over 15 minutes periods, were cut and weighed both in the concentration-response curves and in the potentiating experiments.
The calibration was made by weighing a piece of paper which corresponded to a tension of 1 g at the working sensitivity along 2 minutes. Therefore, a relationship of area expressed in g/2 min was obtained and then the weights of the areas of the responses were transformed to unities of area. The results were expressed as the mean ± the standard error of the areas obtained. The statistical evaluation of the differences was carried out either by ANOVA or by Student's-t-test, as appropriate.

Data set [2] deals with guinea pig isolated trachea. Nature of the data set: Relaxation of histamine contracted guinea pig tracheal chain in vitro. The note with it: 10^-5 M; percentage on the histamine (1x10^-6 M) induced contraction; n = 8; vehicle -7 ± 3. Also on record: species or system guinea pigs. The method, then: The effect of B-407 on isolated trachea was evaluated in guinea pigs weighing 700 g. The animals were killed and the trachea was dissected out, transferred to a dish containing Krebs solution and cut transversely between the segments of cartilage, so as to give a number of rings of tracheal muscle. Five rings were tied up together with cotton threads, so as to form a chain, which was then mounted in a 10 ml bath with Krebs solution at 37°C, aerated with a mixture of oxygen (95 %) and carbon dioxide (5 %). The load on the lever was 0.4 g. The organ was left to stabilize for 15 to 30 min.
Enough quantity (100 µl) of 0.1 mM histamine solution was added to the bath (1x10^-6 M) in order to obtain a contraction of 0.2 g to 0.5 g of tension. After the contraction reached a plateau, 100 µl of ethanol: distilled water (1:1) (vehicle as control) was added to the bath. Eight minutes later, the preparation was relaxed by washing 4 to 6 times. […]
The relaxation induced by B-407 was expressed as a percentage on the histamine induced contraction. The average ± standard error of all the determinations were calculated ["The guinea-pig tracheal chain"; "Pharmacological Experiments on Isolated Preparations". […]

Molecules are shown by their SMILES.

`CCCCC(C)(O)C/C=C/[C@H]1[C@H](O)CC(=O)[C@@H]1CCCC/C=C/C(=O)OC` (mixture of isomers) [B-407, trans-Δ^2-15-deoxy-16-hydroxy-16-methyl PGE1 methyl ester]: the “N° Quadrants/12 min” value in the data set on Swiss mice (30 µg/kg) is 87 ± 8; in the data set on Swiss mice (100 µg/kg, p < 0,05), 48 ± 8. Besides, in the data set on guinea pigs, the “Falling down time (sec) by bronchospasm” value stood at 358 ± 4 s. For the same molecule, the “Ratio = Effect of PGF2α after B-407/(Effect of PG F2α before B-407 + Effect of B-407)” value in data set [1] (B-407 3x10^-7 M, p < 0.05) was 2,06; in data set [1] (B-407 3x10^-8 M), 1,69; in data set [1] (B-407 3x10^-9 M), 1,29. In data set [2], the “% of relaxation” value is 35 ± 5%.
